Earlier results on 2 compounds are cited in patent US20020137785A1, “Inflammatory mechanism modulator composition and methods with anti-asthmatic properties” (priority 2001, published 2002).

For series [1] the following is noted: intravenous; coronary artery disease; tachycardia induced in the electrophysiology laboratory.
The conditions of series [2]: people with septic shock; NAC alone; reduced from 21 days.

Turning to `O=S(=O)([O-])[O-].[Mg+2]` [magnesium sulfate], in series [1], the “aborting monomorphic ventricular tachycardia” value is listed as “ineffective”. Take `CC(=O)N[C@@H](CS)C(=O)O` [NAC, N-acetyl-cysteine]: the “ventilator time (mechanical breathing)” value in series [2] is “about 7 days”.
